Data as given in paper PMC4273984 (ACS Chemical Biology, 2014).
Blank lines part the entries; values can stand above or below the compound they belong to.

Legend:
Brd4(1) = Brd4(1) (Homo sapiens, UniProt O60885); conditions: fluorescence anisotropy or TR-FRET; cited from earlier work
3FY-Brd4(1) = 3FY-Brd4(1) (Homo sapiens, UniProt O60885); assay: Protein-observed 19F NMR; assay type: binding
5FW-Brd4(1) = 5FW-Brd4(1) (Homo sapiens, UniProt O60885); assay: Protein-observed 19F NMR; assay type: binding; conditions: W81 resonance perturbation
BrdT = BrdT (Homo sapiens, UniProt Q58F21); assay: Protein-observed 19F NMR, 5FW-BrdT; assay type: binding; conditions: resonance perturbation in slow exchange
Brd4 = conditions: BET bromodomain inhibition; cited from earlier work

SMILES: CC(=O)Nc1ccc(O)cc1 [acetaminophen]
- affinity for Brd4(1) (Brd4(1)): too weak
- Kd (3FY-Brd4(1)): 290 ± 40 µM
- Kd (5FW-Brd4(1)): 230 ± 30 µM

- binding to BrdT by PrOF NMR (BrdT): bind to BrdT
SMILES: CC[C@@H]1C(=O)N(C)c2cnc(Nc3ccc(C(=O)NC4CCN(C)CC4)cc3OC)nc2N1C1CCCC1 [BI2536]
